In patent publication US20140039043A1, “PHARMACEUTICAL COMPOSITIONS COMPRISING CANNABIGEROL” (GW Pharma Limited, priority 2006, published 2014):

System: C57 B16J mice
Assay: Tail suspension test (animal model of depression)
Format: in vivo
Details: CBG dose greater than or equal to 40 mg/kg ip, tested 30 minutes after injection for six minutes
Procedure: A substantially pure extract of cannabigerol, purified from a cannabis plant extract, was tested for its ability to modify the behaviour of mice during an open field test and a tail suspension test (Steru et al., 1985, Psychopharmacology (Berl.) 85(3), 367-370). The CBG extract was compared to a known antidepressant imipramine.
The experiment used groups of 7-8 C57 B16J mice and these were tested with doses of 0, 5, 10, 20, 40, 60 and 80 mg/kg ip of CBG extract. The dose of imipramine that was used was the standard dose that is known to produce an anti-depressant effect of 30 mg/kg ip. One group of animals were administered a vehicle control.
The animals were subjected to a tail suspension test whereby a sound-attenuated chamber with a titanium bar mounted 15 cm from the floor was used. An opto-electronic sensor was mounted in a white plastic column and positioned from the mounting bar. An infra-red light transmitted from an LED onto the animal. If the animal moved, the amount of light collected by the phototransistor would increase or decrease depending on the size of the movement. […]
The mouse was suspended from a bar by the tip of its tail using adhesive tape so that the tip of their nose was 2 cm from the floor of the chamber. The total number of movements and total amount of time spent immobile were recorded.

## CCCCCc1cc(O)c(C/C=C(\C)CCC=C(C)C)c(O)c1 [CBG, cannabigerol]
  amount of struggling in the tail suspension test compared with vehicle control: significantly increased
